Source: patent US20240238228A1, “COMPOSITIONS AND METHODS FOR TREATING ALLERGIES AND INFLAMMATORY CONDITIONS” (UNIVERSITY OF PITTSBURGH-OF THE COMMONWEALTH SYSTEM OF …, priority 2021, published 2024)

What was measured:
[1] = system: passive cutaneous anaphylaxis (PCA); experiment: Passive cutaneous anaphylaxis (PCA) in mice; assay type: in vivo, mouse; conditions: glyburide 2.5 mg/kg i.p. 3 h prior to PCA induction
inflammasome = conditions: cited from earlier work
sepsis = conditions: in vivo; cited from earlier work
STAT5 = STAT5 phosphorylation (flow cytometry) and nuclear localization (ImageStream) in BMMCs; assay type: cell-based, murine
Procedure: To detect phospho-Stat5Tyr694, MCs were loaded with IgE in serum and cytokine-free RPMI. Neurokinin A (1.0 μM) or vehicle control and DNP-HSA (100 ng/mL) were added simultaneously. At the indicated time, cells were fixed with 2.0% paraformaldehyde for 10 minutes then permeabilized with 90% methanol overnight at −20° C. Cells were stained with monoclonal anti-phospho-Stat5 Tyr694 Alexa Fluor 647 (clone C71E5, Cell Signaling Technology) for 60 minutes at room temperature. Nuclear co-localization was evaluated using ImageStream (Amnis). Activated BMMCs were fixed with 2.0% paraformaldehyde, permeabilized with Permeabilization Wash Buffer containing 3% FBS and 0.1% Triton X-100. and stained with anti-STAT5B Alexa Fluor 488 (clone EPR16671, Abcam) and DAPI. Data were analyzed using the Co-localization Wizard in IDEAS (v6.2). Co-localization for single cells expressing STAT5B and DAPI was quantified as Similarity Score, a log-transformed Pearson's correlation coefficient for the pixel intensity of corresponding images.

BMMCs = experiment: MS/MS shotgun proteomics on BMMC releasate; assay type: cell-based, murine
Procedure: BMMCs (4×10^6) were activated in Tyrode's Buffer without BSA (500 μl) for 1 hour. Protease Inhibitor Cocktail (Sigma, containing aprotinin, bestatin, E-64, leupeptin and pepstatin A) was added to cell free supernatants. Supernatants were concentrated using Amicon Ultra Centrifugal Filters-3K (EID Millipore). Protein concentrations were quantified with the BCA Protein Assay Kit (ThermoFisher). Tryptic peptides were generated with the filter-aided sample preparation method, desalted with C18 spin columns and dried in aspeedvac. Peptides were reconstituted in 0.5% formic acid in 96:4 water:acetonitrile and resolved with liquid chromatography tandem mass spectrometry with a system composed of a Waters nanoACQUITY UPLC in-line with a Q-Exactive mass spectrometer (ThermoFisher). Solvent A (0.1% formic acid in water, Burdick & Jackson) and solvent B (0.1% formic acid in acetonitrile, Burdick & Jackson) were used as the mobile phase. Peptides were then eluted from a capillary column (100 μm inner diameter×100 mm long; ACQUITY UPLC M-Class Peptide BEH C18 Column, 1.7-μm particle size, 300 Å (Waters), and resolved using a 100-min gradient at a flow rate of 0.9 μL/min (4-33% B for 90 min, 33-80% B for 2 min, constant at 80% B for 6 min, and then 80-0% B for 2 min to equilibrate the column). Data were collected in positive ionization mode. PEAKSX software was used to sequence and identify peptides in each sample using a decoy search at a 1.0% false discovery rate using the UniProt murine database. Label-free quantitation was performed using the quantitative module in the PEAKSX software. The MS proteomics data have been deposited to the ProteomeXchange Consortium via the PRIDE partner repository with the dataset identifier PXD021377. Pathway analysis for expressed proteins was done using the Panther Classification System.

calpain = experiment: Calpain activity in cell-free supernatants of activated PMCs; assay type: cell-based, murine; conditions: IgE+Ag with or without NKA for 60 min
Procedure: Calpain activity was detected from cell-free supernatants using the Calpain-Glo Protease Assay (Promega). Supernatants were incubated with substrate for 10 min prior to luminescent detection. In some experiments, glyburide or vehicle (0.1% DMSO) were added to cells 10 min prior to Ag. ELISA kits from eBioscience (IL-13), BioLegend, (TNF and IL-10) or RayBiotech (NKA) and used in accord with the manufacturer's recommendations.

ABCA1 [2] = experiment: Surface ABCA1 expression on activated BMMCs (flow cytometry); assay type: cell-based, murine; conditions: 30 minutes after IgE-initiated activation; NKA 1000 nM
Procedure: (§1) MCs were collected and washed with PBS containing 0.5% BSA and 0.1% sodium azide. Non-specific binding was inhibited using FcBlock (PBS with 2.0% goat serum and 0.25 mg/mL anti-CD16/32 (clone 2.4G2, BD Biosciences). Surface staining was done with anti-CD117 eFluor450 (clone 2B8, ThermoFisher), anti-FcεRI FITC (clone MAR-1, ThermoFisher) and anti-ABCA1 Alexa Fluor 647 (clone 5A1-1422, BioRad). Cells were washed with Wash Buffer (PBS with 0.5% BSA and 0.1% sodium azide). To detect differences in granulated proteins at the cell surface, IgE-loaded MCs were activated with DNP-HSA with or without NKA in Tyrode's Buffer for 30 min, washed with Wash Buffer then stained with Avidin Alexa Fluor488 (Invitrogen, Av488, 0.8 μg/5×10^5 cells) and anti-LAMP-1 PE (clone eBio 1D48, ThermoFisher). Data were acquired on either a LSRII or a Fortessa (BD BioSciences). Analysis was performed with FlowJo v10.4 (BD Biosciences).

ABCA1 [3] = experiment: Surface ABCA1 expression on activated PMCs (flow cytometry); assay type: cell-based, murine; conditions: 30 minutes after IgE-initiated activation; NKA 1000 nM
Procedure: as §1

IL10 mRNA = IL10 mRNA in ear skin 3 h after NKA injection; assay type: in vivo, mouse
Procedure: Total RNA was isolated from either MCs or murine ear tissue 3 h hours after NKA injection. Tissue was homogenized in Navy RINO tubes (Next Advance) in a Bullet Blender Storm (Next Advance). RNA was extracted per standard methods with Trizol (Invitrogen). cDNA was reversed transcribed with the Quantitech Reverse Transcription Kit (Qiagen). PCR products were amplified with Fast SybrGreen (ABI) on a StepOne Plus Cycler ([…]) using the following primers: TNF […] NO: 5), TNF […] NO: 6); IL13 […] NO: 7), IL13 […] NO: 8); IL10 […] NO: 9); IL10 […] NO: 10); Bactin […] NO: 11); Bactin […] NO: 12). Data are presented as 2^-ΔΔCT using f-actin as the housekeeping gene and normalizing to either untreated cells or naïve control mice.

[4] = system: mucosal MCs from the lung; conditions: cited from earlier work
[5] = system: connective tissue MCs from the skin, the heart, or peritoneal MCs; conditions: cited from earlier work
MCs = conditions: previous studies; cited from earlier work

Row | release of proteases β-hexosaminidase, MC carboxypeptidase, cathepsin D and chymase (BMMCs) | Molecule | ear thickness at 2 h [1] | levels of IL-13 in the skin ([1]; 24 hours) | levels of TNF in the skin ([1]; 24 hours) | inflammasome (inflammasome) | effect in diabetic patients in sepsis (sepsis) | nuclear translocation of STAT5B (imaging flow cytometry) (STAT5; 30 and 60 minutes following IgE crosslinking) | pTyr695-STAT5 detected by flow cytometry (STAT5; 15 minutes after crosslinking IgE with Ag, NKA 1.0 μM) | release of proteins associated with metabolism and cellular function pathways (pathway analysis) (BMMCs) | number of proteins upregulated by NKA (BMMCs; BMMCs activated 60 minutes) | catalytic subunit of calpain 1 in releasate (BMMCs; BMMCs activated in the presence of NKA) | calpain activity in supernatants (calpain) | ABCA1 detected on the cell surface (ABCA1 [2]) | ABCA1 detected on the cell surface (ABCA1 [3]) | IL10 mRNA in the skin (IL10 mRNA; MC-deficient (Mcpt5Cre^+×Rosa26DTA^+) mice) | IL10 mRNA levels in the skin (IL10 mRNA; MC-sufficient (Mcpt5Cre^−×Rosa26DTA^+) mice) | histamine release [4] | histamine release [5] | effect on MCs (β-hexosaminidase or histamine release as readouts) (MCs)
1 | – | COc1ccc(Cl)cc1C(=O)NCCc1ccc(S(=O)(=O)NC(=O)NC2CCCCC2)cc1 [glyburide, reference compound] | significantly reduced | diminished | diminished | inhibits | anti-inflammatory and protective | – | – | – | – | – | – | – | – | – | – | – | – | –
2 | unchanged | Neurokinin A [NKA] | – | – | – | – | – | significantly reduced | reduced | inhibited | 94 | not detected | significantly diminished | reduced the level of ABCA1 | reduced the level of ABCA1 | no difference | significantly increased | induces histamine release | not | no effect
